Paper PMC9405123, “Design, Synthesis and Mechanistic Studies of Novel Isatin-Pyrazole Hydrazone Conjugates as Selective and Potent Bacterial MetAP Inhibitors” (Antibiotics, 2022)
≈ marks a conversion by molar mass, not a printed value. Where two headings read alike, the source gives them in different places.

How the values were obtained:
S. aureus [1] = test: Growth inhibition screening (broth dilution); assay type: cell-based, Staphylococcus aureus; conditions: for inhibition at 250 µg/mL: Staphylococcus aureus
Protocol: (§1) In vitro screening of the compounds (PS1–14) was performed to assess the antibacterial activity against three Gram-positive (Staphylococcus aureus, Enterococcus faecalis and Bacillus subtilis,) and three Gram-negative (Pseudomonas aeruginosa, Klebsiella pneumonia and Escherichia coli) bacterial strains using the standard NCCLS broth dilution assay. The study’s standard drugs were ciprofloxacin (CIP) and ampicillin (AMP). Compounds were dissolved in a polar solvent (DMSO) and distributed into a 96-well plate in 200 µL of nutrient broth medium, with a final concentration of the compounds […] in each well. The bacterial cells (about 2.5 × 10^5 cells/mL) were inoculated into each well and incubated at 37 °C overnight. After incubation, the growth was measured by turbidity of the culture at 590 nm by spectrophotometer.

E. coli [2] = test: Minimum inhibitory concentration (broth dilution); assay type: cell-based, Escherichia coli; conditions: Escherichia coli, alone, read-out: MIC
P. aeruginosa [3] = test: Combination study with AMP or CIP
B. subtilis [4] = test: Combination study with AMP or CIP
E. faecalis [5] = test: Minimum inhibitory concentration (broth dilution); assay type: cell-based; conditions: Enterococcus faecalis, alone
K. pneumoniae [6] = test: Growth inhibition screening (broth dilution); assay type: cell-based, Klebsiella pneumonia; conditions: for inhibition at 250 µg/mL: Klebsiella pneumoniae
Protocol: as §1

K. pneumoniae [7] = test: Minimum inhibitory concentration (broth dilution); assay type: cell-based, Klebsiella pneumonia; conditions: alone
S. aureus [8] = test: Minimum inhibitory concentration (broth dilution); assay type: cell-based; conditions: Staphylococcus aureus, alone
E. coli [9] = test: Growth inhibition screening (broth dilution); assay type: cell-based, Escherichia coli; conditions: for inhibition at 250 µg/mL: Escherichia coli
Protocol: as §1

E. coli [10] = test: Combination study with AMP or CIP
K. pneumoniae [11] = test: Combination study with AMP or CIP
S. aureus [12] = test: Combination study with AMP or CIP
P. aeruginosa [13] = test: Minimum inhibitory concentration (broth dilution); assay type: cell-based; conditions: Pseudomonas aeruginosa, alone
B. subtilis [14] = test: Growth inhibition screening (broth dilution); assay type: cell-based, Bacillus subtilis; conditions: for inhibition at 250 µg/mL: Bacillus subtilis
Protocol: as §1

E. faecalis [15] = test: Growth inhibition screening (broth dilution); assay type: cell-based, Enterococcus faecalis; conditions: for inhibition at 250 µg/mL: Enterococcus faecalis
Protocol: as §1

E. faecalis [16] = test: Combination study with AMP or CIP
P. aeruginosa [17] = test: Growth inhibition screening (broth dilution); assay type: cell-based, Pseudomonas aeruginosa; conditions: for inhibition at 250 µg/mL: Pseudomonas aeruginosa
Protocol: as §1

S. aureus [18] = test: Minimum bactericidal concentration; assay type: cell-based, Staphylococcus aureus; conditions: for MBC: Staphylococcus aureus
E. faecalis [19] = test: Minimum bactericidal concentration; assay type: cell-based, Enterococcus faecalis; conditions: for MBC: Enterococcus faecalis
P. aeruginosa [20] = test: Minimum bactericidal concentration; assay type: cell-based, Pseudomonas aeruginosa; conditions: for MBC: Pseudomonas aeruginosa
HsMetAP1b = target: T1, HsMetAP1b (Homo sapiens, UniProt P53582); test: MetAP enzyme inhibition, Morrison Ki (Met-AMC fluorescence); assay type: biochemical, H. sapiens; conditions: Morrison Ki method
T1 construct: made in house

B. subtilis [21] = test: Minimum inhibitory concentration (broth dilution); assay type: cell-based; conditions: Bacillus subtilis, alone
B. subtilis [22] = test: Minimum bactericidal concentration; assay type: cell-based, Bacillus subtilis; conditions: for MBC: Bacillus subtilis
MtMetAP1c = target: T2, MtMetAP1c (Mycobacterium tuberculosis, UniProt P9WK19); test: MetAP enzyme inhibition, Morrison Ki (Met-AMC fluorescence); assay type: biochemical, M. tuberculosis; conditions: Morrison Ki method
T2 construct: made in house
Protocol: MetAP appears to serve a vital role in the co- or post-translational modification of proteins, making it essential for bacterial cell metabolism and survival. In this study, all enzymes, which were used for this study, including MtMetAP1c (M. tuberculosis), EfMetAP1a (E. faecalis), SpMetAP1a (S. pneumoniae) and HsMetAP1b (H. sapiens) enzymes, were expressed and purified in our lab as previously reported. All compounds prepared 10 mM stocks in DMSO and were used for enzyme inhibition studies. The concentration of each enzyme is adjusted such that they have similar reaction rates (HsMetAp1b, 1 µM; SpMetAP1a, 5 µM; EfMetAP1a, 1 µM; MtMetAP1c, 1 µM;) as reported earlier. All assays were performed in […] reaction containing 50 mM HEPES (pH 7.5 for SpMetAP1a and HsMetAP1b; 8.0 for EfMetAP1a, MtMetAP1c, […]), 150 mM NaCl, and CoCl2 (three molar equivalents of corresponding enzymes). The reaction was started by adding 50 μM L-Methionine 7-amido-4-methyl coumarin (Met-AMC) and continuously monitoring the fluorescence of released 7-amino-4-methyl coumarin (AMC) (380 nm excitation and 460 nm emission) in a microplate multimode reader (TECAN, Austria). The maximum percentage of inhibition against enzymes is calculated at […] compound concentration. […] The Ki values were determined according to the Morrison method using three different concentrations of substrates and ten different concentrations of the inhibitor. All experiments were performed in triplicate. GraphPad Prism version 8.0.0 (San Diego, CA, USA) was used to determine all the kinetic parameters.

SpMetAP1a = SpMetAP1a (Streptococcus pneumoniae, UniProt Q8DPV1); test: as above; assay type: biochemical; conditions: Morrison Ki method
EfMetAP1a = EfMetAP1a (Enterococcus faecalis, UniProt Q832M5); test: as above; assay type: biochemical; conditions: Morrison Ki method
K. pneumoniae [23] = test: Minimum bactericidal concentration; assay type: cell-based, Klebsiella pneumonia; conditions: for MBC: Klebsiella pneumoniae
E. coli [24] = test: Minimum bactericidal concentration; assay type: cell-based, Escherichia coli; conditions: for MBC: Escherichia coli
[25] = Klebsiella pneumoniae, read-out: MIC

Sequence of SpMetAP1a (Q8DPV1 entry or part of it): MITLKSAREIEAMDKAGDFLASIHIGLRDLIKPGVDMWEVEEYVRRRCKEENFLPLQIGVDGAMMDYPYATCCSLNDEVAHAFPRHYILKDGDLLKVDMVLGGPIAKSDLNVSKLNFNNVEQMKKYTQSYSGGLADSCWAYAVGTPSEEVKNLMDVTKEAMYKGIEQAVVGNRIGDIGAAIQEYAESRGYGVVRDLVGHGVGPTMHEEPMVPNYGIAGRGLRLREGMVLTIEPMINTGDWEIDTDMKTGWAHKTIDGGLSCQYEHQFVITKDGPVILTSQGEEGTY
T2 sequence (P9WK19 whole entry): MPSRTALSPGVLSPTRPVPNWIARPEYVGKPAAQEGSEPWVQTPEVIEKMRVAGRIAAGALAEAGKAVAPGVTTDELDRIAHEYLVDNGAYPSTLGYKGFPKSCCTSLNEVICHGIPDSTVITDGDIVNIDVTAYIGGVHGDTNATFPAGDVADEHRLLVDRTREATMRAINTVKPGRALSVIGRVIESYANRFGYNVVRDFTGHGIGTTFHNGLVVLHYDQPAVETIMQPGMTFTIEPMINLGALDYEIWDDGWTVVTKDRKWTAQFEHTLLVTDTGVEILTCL
Sequence of EfMetAP1a (Q832M5 entry or part of it): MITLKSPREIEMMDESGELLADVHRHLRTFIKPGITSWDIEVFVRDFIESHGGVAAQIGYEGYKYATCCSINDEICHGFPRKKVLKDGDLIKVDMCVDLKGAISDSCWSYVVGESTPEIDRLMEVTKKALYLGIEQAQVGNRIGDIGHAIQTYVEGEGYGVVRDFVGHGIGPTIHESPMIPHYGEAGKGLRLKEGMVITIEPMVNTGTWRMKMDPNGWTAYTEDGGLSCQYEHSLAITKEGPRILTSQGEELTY

| Compound | inhibition at 250 µg/mL (S. aureus [1]) [%] | MIC (E. coli [2]) [µg/mL] | MIC (E. faecalis [5]) [µg/mL] | inhibition at 250 µg/mL (K. pneumoniae [6]) [%] | MIC (K. pneumoniae [7]; [25]) [µg/mL] | MIC (S. aureus [8]) [µg/mL] | inhibition at 250 µg/mL (E. coli [9]) [%] | MIC (P. aeruginosa [13]) [µg/mL] | inhibition at 250 µg/mL (B. subtilis [14]) [%] | inhibition at 250 µg/mL (E. faecalis [15]) [%] | inhibition at 250 µg/mL (P. aeruginosa [17]) [%] | MBC/MIC Ratio (R*) (S. aureus [18]) | MBC (S. aureus [18]) [µg/mL] | melting point [°C] | MBC/MIC Ratio (R*) (E. faecalis [19]) | MBC (E. faecalis [19]) [µg/mL] | MBC/MIC Ratio (R*) (P. aeruginosa [20]) | MBC (P. aeruginosa [20]) [µg/mL] | Ki (HsMetAP1b) [nM] | MIC (B. subtilis [21]) [µg/mL] | other results |
| --- | --- | --- | --- | --- | --- | --- | --- | --- | --- | --- | --- | --- | --- | --- | --- | --- | --- | --- | --- | --- | --- |
| O=C(O)c1cn(C2CC2)c2cc(N3CCNCC3)c(F)cc2c1=O [CIP, Ciprofloxacin, reference compound] | 100 | 8 (≈ 24.1 µM) | 1 (≈ 3.02 µM) | 100 | 8 (≈ 24.1 µM) | 0.5 (≈ 1.51 µM) | 100 | 4 (≈ 12.1 µM) | 100 | 100 | 100 |  |  |  |  |  |  |  |  |  | MIC in Combination (P. aeruginosa [3]; combination PS6 + CIP): 0.5 µg/mL; MIC in Combination (P. aeruginosa [3]; combination PS9 + CIP): 0.125 µg/mL; MIC in Combination (B. subtilis [4]; combination PS6 + CIP): 0.0078 µg/mL; MIC in Combination (B. subtilis [4]; combination PS9 + CIP): 0.5 µg/mL; MIC in Combination (E. coli [10]; combination PS6 + CIP): 0.5 µg/mL; MIC in Combination (E. coli [10]; combination PS9 + CIP): 0.03125 µg/mL; MIC in Combination (K. pneumoniae [11]; combination PS6 + CIP): 4 µg/mL; MIC in Combination (K. pneumoniae [11]; combination PS9 + CIP): 0.0078 µg/mL; MIC in Combination (S. aureus [12]; combination PS6 + CIP): 0.25 µg/mL; MIC in Combination (S. aureus [12]; combination PS9 + CIP): 0.0156 µg/mL; MIC in Combination (E. faecalis [16]; combination PS6 + CIP): 0.0625 µg/mL; MIC in Combination (E. faecalis [16]; combination PS9 + CIP): 1 µg/mL |
| O=C1Nc2cc(Cl)ccc2/C1=N\NC(=O)c1cc(-c2cccc(Br)c2)n[nH]1 [PS3, (E)-3-(3-Bromophenyl)-N′-(6-Chloro-2-Oxoindolin-3-Ylidene)-1H-Pyrazole-5-Carbohydrazide] | 64 | 128 (≈ 288 µM) | 128 (≈ 288 µM) | 97 | 32 (≈ 72 µM) | 128 (≈ 288 µM) | 89 | 32 (≈ 72 µM) | 89 | 60 | 90 | 1 | 128 (≈ 288 µM) | 182 to 185 | 2 | 256 (≈ 576 µM) | 8 | 256 (≈ 576 µM) | 332000 ± 10900 | 64 (≈ 144 µM) | MIC (K. pneumoniae [7]): 64 µg/mL (≈ 144 µM); MBC/MIC Ratio (R*) (B. subtilis [22]): 2; MBC (B. subtilis [22]): 128 µg/mL (≈ 288 µM); Ki (MtMetAP1c): 2320 ± 280 nM; Ki (SpMetAP1a): 1790 ± 80 nM; Ki (EfMetAP1a): 4630 ± 870 nM; MBC/MIC Ratio (R*) (K. pneumoniae [23]): 8; MBC (K. pneumoniae [23]): 512 µg/mL (≈ 1150 µM); MBC/MIC Ratio (R*) (E. coli [24]): 2; MBC (E. coli [24]): 256 µg/mL (≈ 576 µM) |
| COc1ccc2c(c1)/C(=N\NC(=O)c1cc(-c3cccc(Br)c3)n[nH]1)C(=O)N2 [PS11, (E)-3-(3-Bromophenyl)-N′-(5-Methoxy-2-Oxoindolin-3-Ylidene)-1H-Pyrazole-5-Carbohydrazide] | ≥ 94 | 128 (≈ 291 µM) | 32 (≈ 72.7 µM) | ≥ 94 | 32 (≈ 72.7 µM) | 128 (≈ 291 µM) | ≥ 94 | 32 (≈ 72.7 µM) | ≥ 94 | ≥ 94 | ≥ 94 | >4 | > 512 | 245 to 248 | 1 | 32 (≈ 72.7 µM) | 4 | 128 (≈ 291 µM) | 15200 ± 3200 | > 256 | % Growth Inhibition at 250 µg/mL (S. aureus [1]; listed as C00011): 98%; % Growth Inhibition at 250 µg/mL (K. pneumoniae [6]; listed as C00011): 95%; % Growth Inhibition at 250 µg/mL (E. coli [9]; listed as C00011): 97%; MBC/MIC Ratio (R*) (B. subtilis [22]): 2; MBC (B. subtilis [22]): 512 µg/mL (≈ 1160 µM); Ki (MtMetAP1c): 1610 ± 250 nM; Ki (SpMetAP1a): 1360 ± 170 nM; Ki (EfMetAP1a): 2490 ± 310 nM; % Growth Inhibition at 250 µg/mL (B. subtilis [14]; listed as C00011): 100%; % Growth Inhibition at 250 µg/mL (E. faecalis [15]; listed as C00011): 100%; MBC/MIC Ratio (R*) (K. pneumoniae [23]): 1; MBC (K. pneumoniae [23]): 32 µg/mL (≈ 72.7 µM); MBC/MIC Ratio (R*) (E. coli [24]): 2; MBC (E. coli [24]): 256 µg/mL (≈ 581 µM); % Growth Inhibition at 250 µg/mL (P. aeruginosa [17]; listed as C00011): 96% |
